Entries after “also recorded” stand apart in the source; their conditions may differ. Where two headings read alike, the source gives them in different places.
Legend:
TRPM8 = TRPM8 (Homo sapiens, UniProt Q7Z2W7); conditions: cited from earlier work
TRPA1 = TRPA1 (Homo sapiens, UniProt O75762); conditions: cited from earlier work
TRPV1 = TRPV1 (Homo sapiens, UniProt Q8NER1); conditions: cited from earlier work
[1] = test system: rumen epithelium from cattle; assay: Ussing chamber: ammonium-induced transepithelial short-circuit current (Isc) across isolated rumen epithelium; format: cell-based; conditions: for influence on ammonium-induced conductivity / transport across rumen epithelium (profile in words): no concentration stated
From the text: The experiments on the intact epithelium take place as already specified (Abdoun, Stumpff et al. 2005; Abdoun, Stumpff et al. 2010). The measuring techniques used are a combination of the Ussing chamber technique developed by Ussing (1949) and the microelectrode technique.
When examining epithelial transport processes with the Ussing chamber, the epithelium is installed in a special chamber, which makes it possible to rinse the two sides of the epithelium (apical: food side; basolateral: blood side) separately of each other with buffer solutions of various composition, wherein the electrophysiological parameters (current and voltage) across the epithelium are traced. Hereby, it is made possible to differentiate between the transport of an uncharged substance (e.g. ammonia, NH3) and the transport of a charged substance (e.g. ammonium, NH4^+), as the former takes place without a change in current and voltage, whereas the latter is coupled with the transfer of a charge and thus changes the transepithelial electrical parameters.
With the help of a special modification, the reaction of individual epithelia to solution changes, taking place very rapidly and smoothly, is also examined over time. Hereby, for example, the reproducibility of a pharmacological intervention on the same piece of epithelium can very well be examined. This modification of the classic Ussing chamber technique is particularly, albeit not exclusively, used for the comparative “screening” of the various substances which are subject of an aspect of the present invention.
The epithelium is horizontally clamped into a modified Ussing chamber, wherein the mucosal side faces upwards. The chamber made of plexi-glass has a cross-section surface of 0.79 cm^2, which is corrected to 1 cm^2. As a protection against damages on the edges of the epithelium, “edge damage”, a silicone ring is in each case placed between chamber and epithelium. The two resulting chambers (mucosal and serosal) are each supplied by their own perfusion system (4-channel-stand-pump, Ismatec SA). With three-way valves, an independent solution change between altogether eight solutions is possible in the two chambers. During storage, the solutions are gassed in their containers with 100% O2. To warm the solutions up to 37° C., the thin perfusion tubes run through a heat exchanger pump. The suction device (Masterflex R/S, Cole Parmer Instrument Company) present in both chambers guarantees a rapid and safe change of solution. In order to ensure that there are no solution change artefacts when adding agonists and antagonists, the substances are pipetted into the respective solution, wherein the gassing ensures a rapid mixing. In this way, pressure fluctuations or an interruption of the flow through the chamber can be safely precluded.
As in the conventional Ussing chamber technique, there are in each case two electrodes near the tissue and two electrodes distant from the tissue for measuring the transepithelial potential difference and the transepithelial current (Isc). The connections between the Ag/AgCl electrodes, which are filled with 3 M KCl, are established via agar bridges. Just as in Strecker (Strecker 2011), the measuring chamber is connected to a “voltage clamp” installation (Ussing chamber unit) in assembly with a microelectrode amplifier (both Biomedical Instruments Co., Germering). A micromanipulator (MF 500) installed above the measuring chamber offers the possibility to move the microelectrode in fine μm steps. Additionally, a microscope as well as a cold-light source are located above the apparatus.
Menthol (Sigma-Aldrich) was dissolved at a concentration of 1 mol·l^−1 in ethanol and pipetted into the used test solution containing ammonium. For an end concentration of 1 mmol·l^−1, 20 μl of this stock solution was added to 20 ml test solution; for 200 μmol·l^−1 correspondingly less. In control experiments, corresponding amounts of pure ethanol were added to the test solution.

TRPV3 = target: T1, TRPV3 (Homo sapiens, UniProt Q8NET8); conditions: cited from earlier work
T1 sequence (Q8NET8 1-790): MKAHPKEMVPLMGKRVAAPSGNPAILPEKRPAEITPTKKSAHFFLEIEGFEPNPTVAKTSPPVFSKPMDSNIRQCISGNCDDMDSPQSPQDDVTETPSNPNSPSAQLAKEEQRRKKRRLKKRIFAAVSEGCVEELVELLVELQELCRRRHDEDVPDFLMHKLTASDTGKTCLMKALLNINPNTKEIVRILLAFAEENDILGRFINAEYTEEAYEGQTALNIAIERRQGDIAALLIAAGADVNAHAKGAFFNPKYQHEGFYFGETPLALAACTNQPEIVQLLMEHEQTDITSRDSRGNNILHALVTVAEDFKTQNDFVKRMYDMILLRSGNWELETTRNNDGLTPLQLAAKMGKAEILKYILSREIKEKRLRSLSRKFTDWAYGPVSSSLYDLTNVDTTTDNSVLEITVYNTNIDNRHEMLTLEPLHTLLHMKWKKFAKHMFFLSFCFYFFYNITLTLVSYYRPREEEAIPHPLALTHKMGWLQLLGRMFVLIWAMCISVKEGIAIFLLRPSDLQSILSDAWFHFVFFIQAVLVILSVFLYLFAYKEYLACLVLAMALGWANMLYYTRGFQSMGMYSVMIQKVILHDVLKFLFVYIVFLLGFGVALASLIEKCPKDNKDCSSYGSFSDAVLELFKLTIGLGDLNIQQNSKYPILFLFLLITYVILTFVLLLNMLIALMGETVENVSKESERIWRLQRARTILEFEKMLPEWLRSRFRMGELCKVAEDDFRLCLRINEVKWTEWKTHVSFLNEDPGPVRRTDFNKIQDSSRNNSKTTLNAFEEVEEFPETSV

Chain of TRPM8 (Q7Z2W7 whole entry, species assumed): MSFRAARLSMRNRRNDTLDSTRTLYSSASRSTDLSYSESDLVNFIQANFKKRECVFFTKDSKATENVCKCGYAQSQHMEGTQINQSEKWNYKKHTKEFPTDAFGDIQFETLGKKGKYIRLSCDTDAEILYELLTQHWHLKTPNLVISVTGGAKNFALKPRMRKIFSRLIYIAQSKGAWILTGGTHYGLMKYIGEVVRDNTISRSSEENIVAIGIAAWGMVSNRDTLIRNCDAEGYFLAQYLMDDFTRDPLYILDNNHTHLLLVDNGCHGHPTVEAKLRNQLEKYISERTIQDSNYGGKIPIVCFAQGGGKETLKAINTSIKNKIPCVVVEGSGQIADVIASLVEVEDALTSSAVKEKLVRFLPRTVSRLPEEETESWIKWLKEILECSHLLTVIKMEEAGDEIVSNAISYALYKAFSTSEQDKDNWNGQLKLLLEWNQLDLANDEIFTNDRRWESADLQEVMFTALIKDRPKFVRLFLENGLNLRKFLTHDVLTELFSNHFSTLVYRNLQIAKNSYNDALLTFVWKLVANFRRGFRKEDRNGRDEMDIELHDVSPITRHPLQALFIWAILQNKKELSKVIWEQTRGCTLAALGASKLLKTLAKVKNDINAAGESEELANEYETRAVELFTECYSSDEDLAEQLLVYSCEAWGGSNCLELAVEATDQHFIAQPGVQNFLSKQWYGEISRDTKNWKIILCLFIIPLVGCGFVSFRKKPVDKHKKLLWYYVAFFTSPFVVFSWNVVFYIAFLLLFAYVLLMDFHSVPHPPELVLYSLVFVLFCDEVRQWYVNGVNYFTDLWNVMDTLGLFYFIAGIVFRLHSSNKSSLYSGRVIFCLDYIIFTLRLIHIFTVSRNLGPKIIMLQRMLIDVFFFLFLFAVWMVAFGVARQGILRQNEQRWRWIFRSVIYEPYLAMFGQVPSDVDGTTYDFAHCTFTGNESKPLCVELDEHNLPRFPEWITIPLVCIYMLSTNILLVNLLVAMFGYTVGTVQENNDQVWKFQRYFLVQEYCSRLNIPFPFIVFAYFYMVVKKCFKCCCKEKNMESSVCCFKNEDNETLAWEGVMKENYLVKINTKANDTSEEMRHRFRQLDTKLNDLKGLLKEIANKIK
Chain of TRPV1 (Q8NER1 whole entry, species assumed): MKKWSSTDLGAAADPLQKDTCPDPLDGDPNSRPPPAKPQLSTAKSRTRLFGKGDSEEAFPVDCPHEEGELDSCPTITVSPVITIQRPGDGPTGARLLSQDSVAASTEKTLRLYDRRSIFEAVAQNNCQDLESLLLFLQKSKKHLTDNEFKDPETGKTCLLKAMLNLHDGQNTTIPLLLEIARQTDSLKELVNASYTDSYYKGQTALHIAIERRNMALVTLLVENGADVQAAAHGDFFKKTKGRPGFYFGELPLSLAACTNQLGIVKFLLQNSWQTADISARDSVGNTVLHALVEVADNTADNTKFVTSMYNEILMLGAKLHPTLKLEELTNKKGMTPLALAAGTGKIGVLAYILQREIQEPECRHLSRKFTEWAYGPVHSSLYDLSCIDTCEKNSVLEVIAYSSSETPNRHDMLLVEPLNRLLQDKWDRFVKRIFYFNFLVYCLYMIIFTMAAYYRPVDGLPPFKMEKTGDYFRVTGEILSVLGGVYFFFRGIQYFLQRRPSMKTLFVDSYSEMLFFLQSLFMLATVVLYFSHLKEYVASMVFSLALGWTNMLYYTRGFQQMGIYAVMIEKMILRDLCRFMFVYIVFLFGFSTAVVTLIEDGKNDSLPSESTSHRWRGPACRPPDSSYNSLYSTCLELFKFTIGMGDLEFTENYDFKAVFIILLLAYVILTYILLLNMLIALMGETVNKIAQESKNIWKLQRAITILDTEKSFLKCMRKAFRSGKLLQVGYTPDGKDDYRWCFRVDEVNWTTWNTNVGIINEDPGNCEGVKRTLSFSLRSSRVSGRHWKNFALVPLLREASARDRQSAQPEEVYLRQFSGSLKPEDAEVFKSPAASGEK
Chain of TRPA1 (O75762 whole entry, species assumed): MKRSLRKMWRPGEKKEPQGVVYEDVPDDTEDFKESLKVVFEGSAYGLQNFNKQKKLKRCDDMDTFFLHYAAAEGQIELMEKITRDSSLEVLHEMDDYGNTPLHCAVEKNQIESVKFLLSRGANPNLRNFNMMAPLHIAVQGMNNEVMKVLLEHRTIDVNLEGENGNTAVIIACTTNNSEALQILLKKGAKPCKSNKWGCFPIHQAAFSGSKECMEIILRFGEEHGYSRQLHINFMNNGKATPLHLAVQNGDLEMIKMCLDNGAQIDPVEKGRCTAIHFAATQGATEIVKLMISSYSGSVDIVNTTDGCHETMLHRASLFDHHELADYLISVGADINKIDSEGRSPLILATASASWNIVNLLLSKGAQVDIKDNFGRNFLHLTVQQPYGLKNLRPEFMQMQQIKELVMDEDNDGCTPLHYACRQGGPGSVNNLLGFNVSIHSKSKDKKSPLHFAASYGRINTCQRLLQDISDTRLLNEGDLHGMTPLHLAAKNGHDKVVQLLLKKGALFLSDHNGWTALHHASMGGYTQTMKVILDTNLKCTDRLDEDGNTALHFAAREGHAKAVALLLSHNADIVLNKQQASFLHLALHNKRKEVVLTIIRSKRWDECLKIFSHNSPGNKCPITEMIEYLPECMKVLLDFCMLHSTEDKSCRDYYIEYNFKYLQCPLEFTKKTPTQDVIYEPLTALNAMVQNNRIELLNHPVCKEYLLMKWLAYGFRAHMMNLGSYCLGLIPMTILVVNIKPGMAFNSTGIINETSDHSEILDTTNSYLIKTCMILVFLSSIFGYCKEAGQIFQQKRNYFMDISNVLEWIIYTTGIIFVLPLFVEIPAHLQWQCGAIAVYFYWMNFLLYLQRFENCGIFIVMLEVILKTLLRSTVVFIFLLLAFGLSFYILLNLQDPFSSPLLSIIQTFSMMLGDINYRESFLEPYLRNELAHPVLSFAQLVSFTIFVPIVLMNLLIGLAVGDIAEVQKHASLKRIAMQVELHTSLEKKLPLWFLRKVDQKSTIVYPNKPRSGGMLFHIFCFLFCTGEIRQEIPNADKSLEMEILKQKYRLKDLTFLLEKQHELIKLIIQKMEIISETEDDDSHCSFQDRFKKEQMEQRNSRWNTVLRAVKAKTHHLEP

Q: For O=C1NC(c2cccc([N+](=O)[O-])c2)=CCN1c1ccccc1O [Icilin, icilin], which “Effect on TRPM8” value (TRPM8) is on record?
A: The value was “Agonist”.

Q: For S=C=NCc1ccccc1 [Benzyl isothiocyanate, benzyl isothiocyanate], which “Effect on TRPA1” value (TRPA1) is on record?
A: The value was “Agonist”.

Q: Which “Effect on TRPV1” value (TRPV1) does the source give for evodiamine here?
A: The value was “Agonist”.

Q: With CC1(C)CCC[C@]2(C)[C@@H](C=O)C(C=O)=CC[C@@H]12 [Polygodial, polygodial] as the compound, how does the “Effect on TRPV1” value (TRPV1) read?
A: The value was “Agonist”.

Q: With COc1ccc(CCN(C)CCCC(C#N)(c2ccc(OC)c(OC)c2)C(C)C)cc1OC (stereo not drawn) [verapamil] as the compound, how does the “change of transepithelial current” value ([1]; 1 mmol·l^−1 added to solution containing ammonium) read?
A: The value was “the current drops”.

Q: For CC12CCC(CC1)C(C)(C)O2 [Eucalyptol, eucalyptol], which “Effect on TRPM8” value (TRPM8) is on record?
A: The value was “Agonist”.

Q: And the “Effect on TRPM8” value (TRPM8; listed as eucalyptol)?
A: Its value is “potent TRPM8 agonist”.

Q: For CC1CCC(C(C)(C)O)C(O)C1 (stereo not drawn) [Cis- and trans-p-menthane-3,8-diol, p-menthane-3,8-diol], which “Effect on TRPM8” value (TRPM8) is on record?
A: The value was “Agonist”.

Q: For CC12CCC(CC1=O)C2(C)C (stereo not drawn) [Camphor, camphor], which “Effect on TRPV1” value (TRPV1) is on record?
A: Its value is “Agonist”.

Q: And the “Effect on TRPA1” value (TRPA1)?
A: The value was “Antagonist”.

Q: And the “Effect on TRPV3” value (TRPV3)?
A: The value was “nonspecific”.

Q: What does the source list for N [NH4^+, ammonium]?
A: transepithelial current, MV ([1]; 40 mM NH4^+ replacing NMDG+, n=37, NaCl before −2.43, after washout −2.68): −25.73 μA · cm^−2; transepithelial current, Median ([1]; 40 mM NH4^+ replacing NMDG+, n=37, NaCl median −3.60): −22.32 μA · cm^−2

Q: For CCO [Ethanol], which “Effect on TRPM8” value (TRPM8) is on record?
A: Its value is “Antagonist”.

Q: Which “Effect on TRPM8” value (TRPM8) does the source give for CC1CCC(C(C)C)C(OC(=O)C(C)O)C1 (stereo not drawn) [Menthyl lactate, menthyl lactate] here?
A: Its value is “Agonist”.

Q: With CC(C)N=C=S [Isopropyl isothiocyanate, isopropyl isothiocyanate] as the compound, how does the “Effect on TRPA1” value (TRPA1) read?
A: The value was “Agonist”.

Q: With C=CCN=C=S [Allyl isothiocyanate, allyl isothiocyanate] as the compound, how does the “Effect on TRPA1” value (TRPA1) read?
A: The value was “Agonist”.

Q: For Cc1ccc(C(C)C)cc1O [Carvacrol, carvacrol], which “Effect on TRPA1” value (TRPA1) is on record?
A: Its value is “Agonist”.

Q: And the “Effect on TRPA1” value (TRPA1; listed as carvacrol)?
A: Its value is “potent TRPA1 agonists”.

Q: What about the “Effect on TRPV3” value (TRPV3) of the same compound?
A: The value was “Agonist”.

Q: For O=CC=Cc1ccccc1 [cinnamaldehyde], which “transepithelial current, MV” value ([1]; cinnamaldehyde (concentration not given) in 40 mM NH4^+, n=7, before −31.53, p = 0.313) is on record?
A: Its value is −28.39 μA · cm^−2.

Q: And the “transepithelial current, Median” value ([1]; cinnamaldehyde in 40 mM NH4^+, n=7, before −26.52)?
A: Its value is −24.03 μA · cm^−2.

Q: And the “influence on ammonium-induced conductivity / transport across rumen epithelium (profile in words)” value [1]?
A: The value was “inhibiting profile”.

Q: And the “Effect on TRPM8” value (TRPM8)?
A: Its value is “Antagonist”.

Q: And the “Effect on TRPA1” value (TRPA1)?
A: The value was “potent TRPA1 agonists; also recorded: Agonist”.

Q: Which “Effect on TRPV1” value (TRPV1) does the source give for CCCCCCCC/C=C\CCCCCCCC(=O)NCc1ccc(O)c(OC)c1 [Olvanil, olvanil] here?
A: Its value is “Agonist”.

Q: With C=C(C)[C@@H]1CC=C(C)C(=O)C1 [L-carvone, 1-carvone] as the compound, how does the “Effect on TRPM8” value (TRPM8) read?
A: The value was “Agonist”.

Q: Which “Effect on TRPV1” value (TRPV1) does the source give for C=C(C)[C@]12C[C@@H](C)[C@@]34O[C@](Cc5ccccc5)(O[C@@H]1[C@@H]3C=C(COC(=O)Cc1ccc(O)c(OC)c1)C[C@]1(O)C(=O)C(C)=C[C@@H]41)O2 [Resiniferatoxin, resiniferatoxin] here?
A: Its value is “Agonist”.

Q: With S=C=NCCc1ccccc1 [Phenylethyl isothiocyanate, phenylethyl isothiocyanate] as the compound, how does the “Effect on TRPA1” value (TRPA1) read?
A: Its value is “Agonist”.

Q: Which results are given for CC(C)=CCC/C(C)=C/CO [Geraniol, geraniol]?
A: Effect on TRPM8 (TRPM8): Agonist; Effect on TRPM8 (TRPM8; listed as geraniol): potent TRPM8 agonist

Q: For C/C=C(/C)C(=O)O[C@H]1C(C)=C2[C@H]([C@@H]1OC(=O)CCCCCCC)[C@@](C)(OC(C)=O)C[C@H](OC(=O)CCC)[C@@]1(O)[C@H]2OC(=O)[C@@]1(C)O [Thapsigargin, thapsigargin], which “Effect on TRPV1” value (TRPV1) is on record?
A: The value was “Antagonist”.

Q: For C=CC(C)(O)CCC=C(C)C (stereo not drawn) [Linalool, linalool], which “Effect on TRPM8” value (TRPM8) is on record?
A: The value was “Agonist”.

Q: Which “Effect on TRPA1” value (TRPA1) does the source give for C=CCS[S+]([O-])CC=C (stereo not drawn) [Allicin, allicin] here?
A: The value was “Agonist”.

Q: Which “Effect on TRPM8” value (TRPM8) does the source give for CC(C)[C@@H]1CC[C@@H](C)CC1=O [Menthone, menthone] here?
A: Its value is “Agonist”.

Q: And the “Effect on TRPM8” value (TRPM8; listed as menthone)?
A: The value was “potent TRPM8 agonist”.

Q: Which results are given for COC(=O)c1ccccc1O [methyl salicylate]?
A: influence on ammonium-induced conductivity / transport across rumen epithelium (profile in words) [1]: inhibiting profile; transepithelial current after addition (maximum reduction) ([1]; reduced from −25.44±1.8, n=4, not (yet) significant): −21.06±2.97 μA·cm^−2; Effect on TRPA1 (TRPA1): potent TRPA1 agonists; Effect on TRPA1 (TRPA1; listed as Methyl salicilate): Agonist

Q: With C=C(C)[C@@H]1CC[C@@H](C)C[C@H]1O [Isopulegol, isopulegol] as the compound, how does the “Effect on TRPM8” value (TRPM8) read?
A: The value was “Agonist”.

Q: For CC(CC=O)CCCC(C)(C)O (stereo not drawn) [Hydroxyl-citronellal, hydroxyl-citronellal], which “Effect on TRPM8” value (TRPM8) is on record?
A: Its value is “Agonist”.

Q: Which “Effect on TRPA1” value (TRPA1) does the source give for CN=C=S [Methyl isothiocyanate, methyl isothiocyanate] here?
A: The value was “Agonist”.

Q: For Oc1cc2c(cc1O)CN(C(=S)NCCc1ccc(Cl)cc1)CCC2 [Capsazepine, capsazepine], which “Effect on TRPV1” value (TRPV1) is on record?
A: Its value is “Antagonist”.

Q: For COc1cc(CNC(=O)CCCC/C=C/C(C)C)ccc1O [capsaicin], which “influence on ammonium-induced conductivity / transport across rumen epithelium (profile in words)” value [1] is on record?
A: Its value is “significantly influenced”.

Q: And the “Effect on TRPV1” value (TRPV1)?
A: The value was “Agonist”.

Q: With CC1(C)C[C@H]2C=C(C=O)[C@]3(C=O)C[C@]3(C)[C@H]2C1 [Isovelleral, isovelleral] as the compound, how does the “Effect on TRPV1” value (TRPV1) read?
A: Its value is “Agonist”.

Q: Which “Effect on TRPV1” value (TRPV1) does the source give for C=CCc1ccc(O)c(OC)c1 [Eugenol, eugenol] here?
A: Its value is “Agonist”.

Q: And the “Effect on TRPM8” value (TRPM8)?
A: The value was “Agonist”.

Q: What about the “Effect on TRPA1” value (TRPA1) of the same compound?
A: Its value is “Agonist”.

Q: What about the “Effect on TRPA1” value (TRPA1; listed as eugenol) of the same compound?
A: Its value is “potent TRPA1 agonists”.

Q: What about the “Effect on TRPV3” value (TRPV3) of the same compound?
A: The value was “nonspecific”.

Q: Which “Effect on TRPV1” value (TRPV1) does the source give for C=C(C)[C@@H]1CCC(C)=C[C@H]1c1c(O)cc(CCCCC)cc1O [Cannabidiol, cannabidiol] here?
A: Its value is “Agonist”.

Q: Which “Effect on TRPV1” value (TRPV1) does the source give for COc1cc(CCC(C)=O)ccc1O [Vanillylacetone, vanillylacetone] here?
A: Its value is “Agonist”.

Reference: patent publication US9693971B2, “Compositions for alleviating gastrointestinal tract disorders or associated systemic disorders in ruminants and camelids” (FREIE UNIVERSITÄT BERLIN, priority 2012, dated 2017)
